# Assay results published in patent US6403794B2, “Substituted 2-amino-4-alkylamino-1,3,5-triazines as herbicides” (Bayer Aktiengesellschaft, priority 1996, dated 2002).
# How the values were obtained:
# Format in all cases: in vivo
# Sinapis [1] = assay: Post-emergence test; conditions: greenhouse, 1000 g of ai./ha, after three weeks
# Procedure: (§1) Solvent: 5 parts by weight of acetone
# (§2) Emulsifier: 1 part by weight of alkylaryl polyglycol ether
# (§3) To produce a suitable preparation of active compound, 1 part by weight of active compound is mixed with the stated amount of solvent, the stated amount of emulsifier is added and the concentrate is diluted with water to the desired concentration.
# (§4) Test plants which have a height of 5-15 cm are sprayed with the preparation of active compound such that the particular amounts of active compounds desired are applied per unit area. The concentration of the spray liquor is chosen so that the particular amounts of active compound desired are applied in 1000 l of water/ha.
# (§5) After three weeks, the degree of damage to the plants is scored visually in % damage, in comparison to the untreated control.
# (§6) 0%=no effect (like untreated control)
# Alopecurus [2] = assay: Post-emergence test; conditions: greenhouse, 1000 g of ai./ha, after three weeks
# Procedure: as §1, §2, §3, §4, §5, §6
# weeds [3] = assay: Post-emergence test
# Procedure: as §1, §2, §3, §4, §5, §6
# Amaranthus [4] = assay: Post-emergence test; conditions: Amaranthus, 504 h, greenhouse, 1000 g of ai./ha, after three weeks, read-out: degree of damage to the plants (% damage), Amaranthus
# Procedure: as §1, §2, §3, §4, §5, §6
# Avena fatua = assay: Post-emergence test; conditions: greenhouse, 1000 g of ai./ha, after three weeks
# Procedure: as §1, §2, §3, §4, §5, §6
# Setaria [5] = assay: Post-emergence test; conditions: Setaria, 504 h, greenhouse, 1000 g of ai./ha, after three weeks, read-out: degree of damage to the plants (% damage), Setaria
# Procedure: as §1, §2, §3, §4, §5, §6
# Abutilon [6] = assay: Post-emergence test; conditions: greenhouse, after three weeks
# Procedure: as §1, §2, §3, §4, §5, §6
# Cyperus = assay: Post-emergence test; conditions: greenhouse, 1000 g of ai./ha, after three weeks
# Procedure: as §1, §2, §3, §4, §5, §6
# Sinapis [7] = assay: Pre-emergence test; conditions: greenhouse, 1000 g of ai./ha, after three weeks
# Procedure: as §1, §2, §3
# (§7) Seeds of the test plants are sown in normal soil. After about 24 hours, the soil is watered with the preparation of active compound. The amount of water per unit area is advantageously kept constant. The concentration of active compound in the preparation is immaterial, only the application rate of active compound per unit area matters.
# (§8) After three weeks, the degree of damage to the plants is scored visually in % damage in comparison to the development of the untreated control.
# as §6
# Alopecurus [8] = assay: Pre-emergence test; conditions: greenhouse, after three weeks
# Procedure: as §1, §2, §3, §7, §8, §6
# weeds [9] = assay: Pre-emergence test
# Procedure: as §1, §2, §3, §7, §8, §6
# Amaranthus [10] = assay: Pre-emergence test; conditions: Amaranthus, 504 h, greenhouse, 1000 g of ai./ha, after three weeks, read-out: degree of damage to the plants (% damage), Amaranthus
# Procedure: as §1, §2, §3, §7, §8, §6
# Setaria [11] = assay: Pre-emergence test; conditions: greenhouse, 1000 g of ai./ha, after three weeks
# Procedure: as §1, §2, §3, §7, §8, §6
# Abutilon [12] = assay: Pre-emergence test; conditions: Abutilon, 504 h, greenhouse, after three weeks, read-out: degree of damage to the plants (% damage), Abutilon; for pest or weed control at 1000 g/ha: 1000 g of ai./ha
# Procedure: as §1, §2, §3, §7, §8, §6
# Xanthium [13] = assay: Pre-emergence test; conditions: greenhouse, 1000 g of ai./ha, after three weeks
# Procedure: as §1, §2, §3, §7, §8, §6
# Ipomoea = assay: Post-emergence test; conditions: greenhouse, 250 g of ai./ha, after three weeks
# Procedure: as §1, §2, §3, §4, §5, §6
# Veronica [14] = assay: Post-emergence test; conditions: greenhouse, 250 g of ai./ha, after three weeks
# Procedure: as §1, §2, §3, §4, §5, §6
# Echinochloa = assay: Post-emergence test; conditions: greenhouse, 250 g of ai./ha, after three weeks
# Procedure: as §1, §2, §3, §4, §5, §6
# Wheat [15] = assay: Post-emergence test; conditions: greenhouse, 250 g of ai./ha, after three weeks
# Procedure: as §1, §2, §3, §4, §5, §6
# Datura = assay: Post-emergence test; conditions: greenhouse, 250 g of ai./ha, after three weeks
# Procedure: as §1, §2, §3, §4, §5, §6
# Matricaria = assay: Pre-emergence test; conditions: greenhouse, 500 g of ai./ha, after three weeks
# Procedure: as §1, §2, §3, §7, §8, §6
# Digitaria = assay: Pre-emergence test; conditions: greenhouse, 500 g of ai./ha, after three weeks
# Procedure: as §1, §2, §3, §7, §8, §6
# Maize = assay: Pre-emergence test; conditions: greenhouse, 500 g of ai./ha, after three weeks
# Procedure: as §1, §2, §3, §7, §8, §6
# Cotton = assay: Pre-emergence test; conditions: greenhouse, 500 g of ai./ha, after three weeks
# Procedure: as §1, §2, §3, §7, §8, §6
# Galium [16] = assay: Pre-emergence test; conditions: greenhouse, after three weeks
# Procedure: as §1, §2, §3, §7, §8, §6
# Galium [17] = assay: Post-emergence test; conditions: greenhouse, 1000 g of ai./ha, after three weeks
# Procedure: as §1, §2, §3, §4, §5, §6
# Xanthium [18] = assay: Post-emergence test; conditions: greenhouse, 1000 g of ai./ha, after three weeks
# Procedure: as §1, §2, §3, §4, §5, §6
# Veronica [19] = assay: Pre-emergence test; conditions: greenhouse, 500 g of ai./ha, after three weeks
# Procedure: as §1, §2, §3, §7, §8, §6
# Viola = assay: Pre-emergence test; conditions: greenhouse, 500 g of ai./ha, after three weeks
# Procedure: as §1, §2, §3, §7, §8, §6
# Wheat [20] = assay: Pre-emergence test; conditions: greenhouse, 500 g of ai./ha, after three weeks
# Procedure: as §1, §2, §3, §7, §8, §6
# Solanum = assay: Pre-emergence test; conditions: greenhouse, 500 g of ai./ha, after three weeks
# Procedure: as §1, §2, §3, §7, §8, §6
# Chenopodium = assay: Pre-emergence test; conditions: greenhouse, 500 g of ai./ha, after three weeks
# Procedure: as §1, §2, §3, §7, §8, §6
smiles,measurement,setting,value
CCC(CCc1ccsc1)Nc1nc(N)nc(C(C)(C)F)n1 (stereo not drawn) [Example 33],"degree of damage to the plants (% damage), Sinapis",Sinapis [1],100%
same,"degree of damage to the plants (% damage), Alopecurus",Alopecurus [2],80%
same,activity against weeds,weeds [3],strong activity
same,pest or weed control at 1000 g/ha,Amaranthus [4],100%
same,"degree of damage to the plants (% damage), Avena fatua",Avena fatua,100%
same,pest or weed control at 1000 g/ha,Setaria [5],100%
same,"degree of damage to the plants (% damage), Abutilon",Abutilon [6]; 1000 g of ai./ha,100%
same,"degree of damage to the plants (% damage), Cyperus",Cyperus,90%
same,"degree of damage to the plants (% damage), Sinapis",Sinapis [7],100%
same,"degree of damage to the plants (% damage), Alopecurus",Alopecurus [8]; 1000 g of ai./ha,100%
same,activity against weeds,weeds [9],strong activity
same,pest or weed control at 1000 g/ha,Amaranthus [10],100%
same,"degree of damage to the plants (% damage), Setaria",Setaria [11],100%
same,pest or weed control at 1000 g/ha,Abutilon [12],90%
same,"degree of damage to the plants (% damage), Xanthium",Xanthium [13],90%
"CCC(CCc1ccccc1)Nc1nc(N)nc(C(C)(C)F)n1 (racemic) [Example 1, (R/S)-2-amino-4-(1-fluoro-1-methyl-ethyl)-6-(1-ethyl-3-phenyl-propylamino)-1,3,5-triazine]","degree of damage to the plants (% damage), Ipomoea",Ipomoea,100%
same,"degree of damage to the plants (% damage), Veronica",Veronica [14],100%
same,"degree of damage to the plants (% damage), Echinochloa",Echinochloa,80%
same,"degree of damage to the plants (% damage), Wheat",Wheat [15],0%
same,"degree of damage to the plants (% damage), Datura",Datura,100%
same,activity against weeds,weeds [3],strong activity
same,"degree of damage to the plants (% damage), Abutilon",Abutilon [6]; 250 g of ai./ha,100%
same,"degree of damage to the plants (% damage), Matricaria",Matricaria,100%
same,"degree of damage to the plants (% damage), Digitaria",Digitaria,100%
same,"degree of damage to the plants (% damage), Maize",Maize,0%
same,"degree of damage to the plants (% damage), Alopecurus",Alopecurus [8]; 500 g of ai./ha,100%
same,"degree of damage to the plants (% damage), Cotton",Cotton,0%
same,activity against weeds,weeds [9],strong activity
same,"degree of damage to the plants (% damage), Galium",Galium [16]; 500 g of ai./ha,100%
same,pest or weed control at 500 g/ha,Abutilon [12]; 500 g of ai./ha,100%
CCC(CCc1ccccn1)Nc1nc(N)nc(C(C)(C)F)n1 (stereo not drawn) [Example 22],activity against weeds,weeds [3],strong activity
same,"degree of damage to the plants (% damage), Galium",Galium [17],80%
same,pest or weed control at 1000 g/ha,Amaranthus [4],95%
same,pest or weed control at 1000 g/ha,Setaria [5],80%
same,"degree of damage to the plants (% damage), Abutilon",Abutilon [6]; 1000 g of ai./ha,70%
same,"degree of damage to the plants (% damage), Xanthium",Xanthium [18],70%
same,"degree of damage to the plants (% damage), Veronica",Veronica [19],100%
same,"degree of damage to the plants (% damage), Viola",Viola,100%
same,"degree of damage to the plants (% damage), Alopecurus",Alopecurus [8]; 1000 g of ai./ha,90%
same,"degree of damage to the plants (% damage), Wheat",Wheat [20],0%
same,"degree of damage to the plants (% damage), Cotton",Cotton,0%
same,activity against weeds,weeds [9],strong activity
same,"degree of damage to the plants (% damage), Galium",Galium [16]; 1000 g of ai./ha,100%
same,pest or weed control at 1000 g/ha,Amaranthus [10],95%
same,"degree of damage to the plants (% damage), Solanum",Solanum,100%
same,"degree of damage to the plants (% damage), Setaria",Setaria [11],70%
same,pest or weed control at 1000 g/ha,Abutilon [12],100%
same,"degree of damage to the plants (% damage), Chenopodium",Chenopodium,100%
